The values that follow come from publication PMC11790956, “A microscale thermophoresis-based enzymatic RNA methyltransferase assay enables the discovery of DNMT2 inhibitors” (Communications Chemistry, 2025).

Entries after “also recorded” stand apart in the source; their conditions may differ.

Experiment [1] concerns the target aptaSAH1&2 SAH split aptamer. The experiment can be described thus: Split aptamer (aptaSAH1&2) plate reader-based FRET ligand titration. The settings on record: for Kd: FRET, aptaSAH1&2 each 50 nM, λex = 485 nm, λem = 600 nm, read-out: apparent KD. It is filed as binding, D. aromatica. An excerpt:
In our study, we followed the aim of developing a fluorescent split aptamer SAH biosensor (Fig. 1A) from the natural non-split metH RNA aptamer. The concept of fluorescent split aptamers relies on a series of two or more independent fluorescently labeled aptamer oligonucleotides, able to assemble only in the presence of a specific target ligand. In a FRET-based approach, two fragments carry a FRET-pair of communicating fluorescent dyes, such that, upon excitation of the donor dye, the acceptor dye will only emit fluorescence if the dyes are in spatial proximity in the ligand-bound complex, thus indicating the presence of the analyte, i.e., SAH[23]. […] Accordingly, we evaluated two split aptamer fragments labeled with fluorescein (FAM) and tetramethylrhodamin (TAMRA) as a FRET-capable dye pair: aptaSAH1 and aptaSAH2 (Fig. 1B).
(§1) To establish our experimental setup, we mixed both aptamer fragment oligonucleotides at equimolar concentrations (final: 50 nM) and titrated series of SAH resp. SAM dilutions to this prototypical SAH biosensor. […] Furthermore, MST assays require only 10 µL of sample volume per capillary compared to 30 µL per well in a 96-well plate supporting high-throughput applications in material consumption.
MTase reaction mixtures were prepared analogously to the MST-based detection approach but on a 30 µL scale (minimum volume for 96-well half-area plates). Reactions were quenched at a given time by 0.3% SDS and supplemented with 3 µL of the 10× aptamer-containing detection master mix. Reaction mixtures were transferred in technical triplicates to black Greiner 96-well half-area plate and incubated for 1 h at room temperature. Afterward, plates were measured using a Tecan Spark 10 M plate reader equipped with a monochromator setup (λex = 485 nm; λem = 600 nm). Statistical analysis and plotting were performed in GraphPad Prism 7.01.

The target in experiment [2] is aptaSAH1&2 SAH split aptamer. The experiment in a line: Split aptamer (aptaSAH1&2) MST ligand titration. It is filed as binding, D. aromatica. Conditions: for Kd: MST, aptaSAH1&2 each 50 nM. The method, then: as §1
To evaluate the effect of inhibitors on DNMT2 activity, we used two known inhibitors, SHO108 and SH112. These SAH derivatives were selected based on their documented efficacy for DNMT2[8],[26].
For MTase assay detection by MST, enzyme reaction mixtures with a total volume of 10 µL per single treatment condition were prepared and incubated for the desired reaction times. Inhibitors were added from corresponding DMSO stocks to a final DMSO concentration of max. 5%. Afterward, reactions were quenched at a given reaction time by the addition of 1 µL sodium dodecyl sulfate (SDS, solution, 3% in water) per 10 µL reaction mixture and mixed well by pipetting. Subsequently, 1 µL of a 10× aptamer-containing detection master mix (200 mM Tris, pH 8.5, 200 mM MgCl2, 3 M NaCl, 10 mM urea, 0.2% Brij, 500 nM aptaSAH1, 500 nM aptaSAH2) was added to the quenched MTase reaction and incubated for 1 h at room temperature. Reaction mixtures were loaded directly to MST capillaries without further purification or sample processing.
MST experiments were carried out in at least technical triplicates using a Monolith NT.115 instrument (NanoTemper Technologies) using Monolith standard capillaries and the blue excitation laser setup. The instrument was calibrated according to the manufacturer’s instructions. General settings were applied for all MST experiments as follows: manual temperature control: 25 °C, fluorescence measurement before MST: 4 s, MST (IR laser) on: 20 s, fluorescence after MST: 2 s, delay: 25 s. The laser power was adjusted to optimize the signal-to-noise ratio and the fluorescence signal. LED and MST power settings were chosen individually for each sample by adjusting the LED power to yield fluorescence signals of at least 300 units (blue laser) or 3000 units (red laser) and the MST power to achieve an appropriate thermophoretic response (standard setting: medium MST power). MST measurements were analyzed using the NT analysis software (version 1.5.41) and exported for statistical analysis and plotting in GraphPad Prism 7.01.

Experiment [3] addresses AptaFluor SAH aptamer. The experiment in a line: Commercial AptaFluor SAH assay kit (HTRF) ligand titration. The class given is binding. Conditions: read-out: affinity KD. How it is done: To assess the suitability for sensing SAH in a steady-state enzymatic assay, we examined statistical Z-values at 50 nM SAH (which correspond to 5% SAM-to-SAH substrate conversion from 1 µM SAM substrate in a common RNA MTase reaction). By this, we determined an MST-based Z-value of 0.84 (FRET assay: Z = 0.57) highlighting the suitability of this framework for high-throughput screening (HTS) assay setups (Fig. 1E). For these reasons, we prefer the usage of the MST-based assay which the following chapter will focus on, but it is noteworthy that plate reader-based FRET assays were also found equally functional. Furthermore, we performed comparative assays with the commercial AptaFluor assay kit, which gave similar results to our assay in all respects (SI Fig. 2): Z-factor at 50 nM SAH = 0.84; SAH resp.
(§2) Radiometric DNMT2 assays were carried out as described previously. HTRF MTase assays with the commercial AptaFluor SAH assay kit (BellBrook Labs) were performed as described in the manufacturer’s manual in 96-well format.
SI Figure 1 . Displacement of FTAD by literature-known inhibitors in a microscale thermophoresis displacement a s s a y. Data is given as mean ± SD of triplicates. (A) MST traces of SHO108. […]
SI Figure 2. […] (B) D o se -response curves of the AptaFluor assay in the presence of the SAH or SAM ligand by plate reader-ba s e d HT R F ass ays (λex=33 2 nm; λem=620/665 nm). […]

Experiment [4] has as its system metH aptamer. Also noted: method as in PMID 20864509. Conditions: cited from earlier work.
In experiment [5] the target is T1, METTL3/14 (Homo sapiens, UniProt Q86U44).
T1 construct: purchased BPS Bioscience BPS-100105
The experiment in a line: METTL3/14 enzymatic split aptamer MST assay. The class given is biochemical. Conditions: 10 nM MTase, 120 nM RNA substrate, variable SAM; read-out: Michaelis-Menten constant KM.
Method: Specifically, we studied the m^6A MTase METTL3/14 and the m^7G MTase S. aureus TrmD.
For MTase assay detection by MST, enzyme reaction mixtures with a total volume of 10 µL per single treatment condition were prepared and incubated for the desired reaction times. Inhibitors were added from corresponding DMSO stocks to a final DMSO concentration of max. […] Afterward, reactions were quenched at a given reaction time by the addition of 1 µL sodium dodecyl sulfate (SDS, solution, 3% in water) per 10 µL reaction mixture and mixed well by pipetting. […]
MST experiments were carried out in at least technical triplicates using a Monolith NT.115 instrument (NanoTemper Technologies) using Monolith standard capillaries and the blue excitation laser setup. […] General settings were applied for all MST experiments as follows: manual temperature control: 25 °C, fluorescence measurement before MST: 4 s, MST (IR laser) on: 20 s, fluorescence after MST: 2 s, delay: 25 s. The laser power was adjusted to optimize the signal-to-noise ratio and the fluorescence signal. LED and MST power settings were chosen individually for each sample by adjusting the LED power to yield fluorescence signals of at least 300 units (blue laser) or 3000 units (red laser) and the MST power to achieve an appropriate thermophoretic response (standard setting: medium MST power). […]

Experiment [6] has as its target T2, DNMT2 (Homo sapiens, UniProt O14717).
T2 construct: made in house
T2 sequence (O14717 1-391): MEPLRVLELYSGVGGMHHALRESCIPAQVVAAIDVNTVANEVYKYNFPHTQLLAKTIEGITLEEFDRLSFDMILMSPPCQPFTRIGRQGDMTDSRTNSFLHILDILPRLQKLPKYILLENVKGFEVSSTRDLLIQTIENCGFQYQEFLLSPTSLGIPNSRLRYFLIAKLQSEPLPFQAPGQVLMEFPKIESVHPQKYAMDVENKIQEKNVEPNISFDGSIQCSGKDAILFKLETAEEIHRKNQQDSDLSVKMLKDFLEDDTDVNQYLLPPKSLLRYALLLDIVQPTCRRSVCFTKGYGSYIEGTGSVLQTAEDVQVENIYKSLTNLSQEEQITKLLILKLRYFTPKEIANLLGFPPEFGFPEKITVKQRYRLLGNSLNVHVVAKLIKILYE
The experiment in a line: DNMT2 enzymatic split aptamer MST assay. It is filed as biochemical. The settings on record: MST-derived; 250 nM DNMT2, 5 µM tRNA, 0.9 µM SAM.
Method: The enzyme kinetics were characterized by calculating the Michaelis-Menten constant (KM or kcat) and inhibitory constants (IC50 resp. KI).
The final drug compound concentration was adjusted to 500 µM for the epigenetic drug library (Fig. 5) resp. 100 µM for the covalent compound library (Fig. 6), and the enzymatic reaction was incubated for 30 min at 25 °C. Subsequently, enzymatic reactions were terminated by the addition of 0.3% SDS, and the product SAH was quantified by the split aptamer MST assay (Figs. 5A, B, 6A).

Experiment [7] has as its target T2, DNMT2. The experiment can be described thus: DNMT2 radiometric 3H incorporation assay. It is filed as biochemical. The settings on record: orthogonal 3H-incorporation assay; read-out: IC50. The method, then: (§3) To further validate our findings on DNMT2, we compared the split aptamer inhibition assay results of both inhibitors with those obtained from a previously published orthogonal assay method, the radiometric ^3H incorporation assay[8],[26]. […] Using an additional non-enzymatic MTase assay technique, we also investigated the two DNMT2 inhibitors utilizing an orthogonal MST method based on a fluorescent tracer displacement assay (SI Fig. 1)[27],[28].
as §2

Experiment [8] deals with T2, DNMT2. The experiment can be described thus: Fluorescent tracer displacement assay (FTAD-MST assay). It is filed as binding. Conditions: MST FTAD tracer displacement; 2 µM DNMT2, 100 nM FTAD; read-out: KD.
Text: as §3
Fluorescent tracer displacement MST assays for orthogonal ligand evaluation were conducted as described previously. The samples contained 2 µM DNMT2, 100 nM FTAD probe, and 1.3% DMSO in MST buffer (50 mM HEPES, 150 mM NaCl, 1 mM dithiothreitol (DTT), 0.1% PEG-8000, 0.05% polysorbate-20, pH 7.4) supplemented with variable concentrations of the screening compounds. All samples were measured in triplicates in Monolith standard capillaries at 25 °C. The acquisition mode was set to “Nano-Blue” with an excitation power of 30% and a medium MST power. MST measurements were analyzed using the NT analysis software (version 1.5.41) and exported for statistical analysis and plotting in GraphPad Prism 7.01.

Experiment [9] concerns the target T3, S. aureus TrmD (Staphylococcus aureus, UniProt Q2FZ43).
T3 construct: made in house
T3 sequence (Q2FZ43 1-245): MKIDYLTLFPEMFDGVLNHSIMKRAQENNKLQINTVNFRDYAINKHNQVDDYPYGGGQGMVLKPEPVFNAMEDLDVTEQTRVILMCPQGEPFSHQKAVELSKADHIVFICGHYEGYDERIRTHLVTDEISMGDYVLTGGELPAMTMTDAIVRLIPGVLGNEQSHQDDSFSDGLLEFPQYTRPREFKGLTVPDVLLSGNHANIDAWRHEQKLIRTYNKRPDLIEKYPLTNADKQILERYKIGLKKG
The experiment in a line: S. aureus TrmD enzymatic split aptamer MST assay. It is filed as biochemical.
Method: DNMT2 & S. aureus TrmD: 100 mM Tris-HCl, pH 8, 100 mM NH4OAc, 0.1 mM EDTA, 10 mM MgCl2, 10 mM DTT. For TrmD: 50 nM TrmD, 2 µM SAM, 1 µM tRNA^Leu.
For MTase assay detection by MST, enzyme reaction mixtures with a total volume of 10 µL per single treatment condition were prepared and incubated for the desired reaction times. Inhibitors were added from corresponding DMSO stocks to a final DMSO concentration of max. 5%. Afterward, reactions were quenched at a given reaction time by the addition of 1 µL sodium dodecyl sulfate (SDS, solution, 3% in water) per 10 µL reaction mixture and mixed well by pipetting. Subsequently, 1 µL of a 10× aptamer-containing detection master mix (200 mM Tris, pH 8.5, 200 mM MgCl2, 3 M NaCl, 10 mM urea, 0.2% Brij, 500 nM aptaSAH1, 500 nM aptaSAH2) was added to the quenched MTase reaction and incubated for 1 h at room temperature. […]
MST experiments were carried out in at least technical triplicates using a Monolith NT.115 instrument (NanoTemper Technologies) using Monolith standard capillaries and the blue excitation laser setup. […] General settings were applied for all MST experiments as follows: manual temperature control: 25 °C, fluorescence measurement before MST: 4 s, MST (IR laser) on: 20 s, fluorescence after MST: 2 s, delay: 25 s. The laser power was adjusted to optimize the signal-to-noise ratio and the fluorescence signal. […]

In experiment [10] the test system is TrmD. Conditions: read-out: reported IC50; cited from earlier work.

T1 sequence (Q86U44 2-580 limits assumed): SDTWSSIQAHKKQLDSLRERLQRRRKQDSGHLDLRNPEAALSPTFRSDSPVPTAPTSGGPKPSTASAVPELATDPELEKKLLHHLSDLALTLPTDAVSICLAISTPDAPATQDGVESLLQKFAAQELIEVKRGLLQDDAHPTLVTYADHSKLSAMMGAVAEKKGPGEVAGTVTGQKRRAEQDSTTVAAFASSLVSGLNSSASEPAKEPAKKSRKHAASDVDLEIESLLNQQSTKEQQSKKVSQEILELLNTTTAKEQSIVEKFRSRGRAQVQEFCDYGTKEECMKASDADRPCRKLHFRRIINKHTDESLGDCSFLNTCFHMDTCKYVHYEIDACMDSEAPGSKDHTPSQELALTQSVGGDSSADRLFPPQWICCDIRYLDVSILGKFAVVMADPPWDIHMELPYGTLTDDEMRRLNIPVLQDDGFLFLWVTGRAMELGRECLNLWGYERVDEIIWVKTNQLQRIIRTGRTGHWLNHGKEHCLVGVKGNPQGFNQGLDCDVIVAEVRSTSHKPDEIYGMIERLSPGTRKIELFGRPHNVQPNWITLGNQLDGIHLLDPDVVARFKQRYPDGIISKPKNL
T1 sequence (Q9HCE5 2-456 partner limits assumed): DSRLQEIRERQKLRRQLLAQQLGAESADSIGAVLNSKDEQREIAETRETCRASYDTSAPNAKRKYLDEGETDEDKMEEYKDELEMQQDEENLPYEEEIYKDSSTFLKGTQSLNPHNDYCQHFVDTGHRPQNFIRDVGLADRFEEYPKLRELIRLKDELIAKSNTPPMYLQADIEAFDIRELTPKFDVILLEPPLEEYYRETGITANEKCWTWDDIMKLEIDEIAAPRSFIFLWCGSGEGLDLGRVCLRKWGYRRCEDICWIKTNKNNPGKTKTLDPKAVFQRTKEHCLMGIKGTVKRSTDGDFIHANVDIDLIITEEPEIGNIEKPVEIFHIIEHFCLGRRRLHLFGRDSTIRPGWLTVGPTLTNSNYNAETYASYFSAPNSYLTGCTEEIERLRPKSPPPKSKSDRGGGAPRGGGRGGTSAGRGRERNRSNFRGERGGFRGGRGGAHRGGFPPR

As for `Nc1ncnc2c1ncn2[C@@H]1O[C@H](CSCC[C@H](N)C(=O)O)[C@@H](O)[C@H]1O` [SAH, S-adenosylhomocysteine], the Kd in [1] was 0.018 µM; in [2], 0.024 µM; in [3] it was 0.026 µM; in [4] (isothermal titration calorimetry, read-out: apparent dissociation constant KD), approximately 0.02 µM. For the same compound, the “SAH over SAM selectivity” value in experiment [1] (from FRET apparent KD values) came to 300 fold. Moreover, the “selectivity over other nucleosides (including SAM)” value in experiment [4] is given as “at least 100 fold”.

For `C[S+](CC[C@H](N)C(=O)[O-])C[C@H]1O[C@@H](n2cnc3c(N)ncnc32)[C@H](O)[C@@H]1O` (stereo partly shown) [SAM, S-adenosylmethionine], the results for the Kd in experiment [1], in [2] and in experiment [3] were 5.3 µM, 2.5 µM and 5.7 µM, respectively. In addition, in [5], the Km (commonly the substrate concentration at which the rate is half of its maximum) is 0.106 µM.

`C#CCN(CC[C@H](N)C(=O)O)C[C@H]1O[C@@H](n2cnc3c(N)ncnc32)[C@H](O)[C@@H]1O` [SHO108, (S)-2-amino-4-((((2 R,3S,4 R,5 R)-5-(6-amino-9H-purin-9-yl)-3,4-dihydroxytetrahydrofuran-2-yl)methyl)(prop-2-yn-1-yl)amino)butanoic acid]: in experiment [2] (inhibitor titrated up to 100 µM without enzyme or RNA substrate, compared to the SAH-positive control), the “binding to split aptamer (MST shift)” value is listed as “not binding to the aptamer at relevant concentrations; also recorded: only minimal MST shifts”. Also, the IC50 (commonly the concentration that inhibits the measured activity by half) was 7.9 ± 1.8 µM in [6] and 9.3 ± 1.8 µM in experiment [7]. For the same compound, in experiment [8], the Kd was found to be 4.7 µM.

On to `O=c1nc[nH]c2scc(-c3ccccc3)c12` [phenylthieno-pyrimidinone, 5-phenylthieno[2,3-d]pyrimidin-4(1H)-one], for which the IC50 is 8.45 µM in [9] and 11 µM in experiment [10].
